The values that follow come from PubChem BioAssay (NCI).

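Step 1: Grow cells in 96-well plates. Step 2: Expose to compound for 48 hours at 5 concentrations. Step 3: Interpolate endpoints linearly; if unreached, use highest concentration. Definition used: TGI = concentration required for complete inhibition of growth.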 Bounds are passed on as bounds.

Test systems include ACHN renal; EKVX NSCLC; HL-60(TB) leukemia; HT29 colon; IGROV1 ovarian; LOX IMVI melanoma; NCI-H522 lung; PC-3 prostate; RPMI-8226 leukemia; RXF 393 renal; SW-620 colon.
What all share (test): NCI anticancer screen, dose series, 48 h

As to `N#CC(C#N)=C1C(C#N)=C(N)NC12OCCO2`, the TGI with ACHN renal, with EKVX NSCLC, in the assay with HL-60(TB) leukemia, in the assay on HT29 colon, in the assay on IGROV1 ovarian and in the assay with LOX IMVI melanoma was greater than 100 µM throughout. The TGI in the assay with NCI-H522 lung, in the assay with PC-3 prostate, with RPMI-8226 leukemia, in the assay with RXF 393 renal and in the assay on SW-620 colon was greater than 100 µM in each case.

`CC1OC2=N[C@@H]1C(=O)N[C@@H](C(C)C)C1=N[C@H](C(=O)N[C@@H](C(C)C)C3=N[C@H](C(=O)N[C@@H](C(C)C)C4=N[C@H](C(=O)N[C@H]2C(C)C)C(C)O4)C(C)O3)C(C)O1` (stereo partly specified): the TGI in the assay with ACHN renal, with EKVX NSCLC, with HL-60(TB) leukemia, in the assay with HT29 colon, in the assay with IGROV1 ovarian and with LOX IMVI melanoma was greater than 10 µM throughout. Also, the TGI with NCI-H522 lung, with PC-3 prostate, in the assay with RPMI-8226 leukemia, in the assay with RXF 393 renal and in the assay with SW-620 colon was greater than 10 µM throughout.

Take `COc1cc(/C=C/C(=O)c2c(=O)o[nH][n+]2-c2ccccc2)ccc1[O-]`: the TGI in the assay with ACHN renal stood at 6.17 µM; in the assay on EKVX NSCLC, 15.9 µM; in the assay on HL-60(TB) leukemia, 3.65 µM; with HT29 colon it was 6.64 µM; in the assay with IGROV1 ovarian it was 9.66 µM; in the assay with LOX IMVI melanoma, 6.75 µM. In addition, the TGI in the assay with NCI-H522 lung came to 4.29 µM; in the assay with PC-3 prostate, 21.7 µM; in the assay with RPMI-8226 leukemia it was 5.55 µM; in the assay with RXF 393 renal, 4.65 µM; in the assay with SW-620 colon, 5.85 µM.

As for `c1ccc(CCNCc2ccco2)nc1`, the TGI in the assay on ACHN renal, in the assay on EKVX NSCLC, in the assay with HL-60(TB) leukemia, with HT29 colon, in the assay with IGROV1 ovarian and in the assay on LOX IMVI melanoma was greater than 100 µM throughout. In addition, the TGI was greater than 100 µM with NCI-H522 lung; greater than 100 µM in the assay with PC-3 prostate; greater than 67.9 µM with RPMI-8226 leukemia; greater than 100 µM with RXF 393 renal; greater than 100 µM with SW-620 colon.

Turning to `Cc1cc(C)c(P2C(=C(O[Si](C(C)C)(C(C)C)C(C)C)C(C)(C)C)C2(c2ccccc2)c2ccccc2)c(C)c1` (stereo unspecified), the TGI in the assay on ACHN renal, with EKVX NSCLC, in the assay on HL-60(TB) leukemia, in the assay with HT29 colon, in the assay on IGROV1 ovarian and with LOX IMVI melanoma was greater than 100 µM in each case. The TGI in the assay with NCI-H522 lung, in the assay on PC-3 prostate, with RPMI-8226 leukemia, in the assay with RXF 393 renal and in the assay with SW-620 colon was greater than 100 µM throughout.

Consider `O=C1C=CC(=O)C(CNc2ccc(C(=O)OC34CC5CC(CC(C5)C3)C4)cc2)=C1`, for which the TGI is 19.1 µM with ACHN renal; 25.3 µM in the assay on EKVX NSCLC; greater than 21.6 µM with HL-60(TB) leukemia; 24.6 µM in the assay on HT29 colon; 4.86 µM in the assay on IGROV1 ovarian; 15.2 µM in the assay with LOX IMVI melanoma. In addition, the TGI in the assay with NCI-H522 lung turned out to be 2.28 µM; with PC-3 prostate, 22 µM; in the assay on RPMI-8226 leukemia, 7.01 µM; with RXF 393 renal, 4.51 µM; with SW-620 colon, 27.4 µM.
